Columns and labels:
[1] = test system: nidation (implantation sites); conditions: in rats, literature (Fluckiger and Wagner 1968), in words; cited from earlier work
[2] = test system: prolactin; conditions: literature (Brooks and Welsch 1974), in words; cited from earlier work
[3] = test system: puerperal lactation; conditions: comparison drug, no own test described; cited from earlier work
[4] = test system: lactation; conditions: in rats, literature (Fluckiger and Wagner 1968), in words; cited from earlier work
[5] = Emetic activity in dogs; format: in vivo, dog (male beagle); conditions: dog, in vivo, methane-sulphonic salt, approximate (.congruent.), read-out: ED50, emetic activity; for TD50 at 2 h: iv, observed 2 hours; for TD50 at 6 h: po, observed 6 hours
Description: (§1) The emetic activity of the compounds was examined by intravenous and oral administration to male beagle dogs weighing 15-20 kg. The compounds were administered as the methane-sulphonic salts. […] Five to six animals per dose were employed for the ED50 evaluation.

[6] = test system: lactation; test: Lactation inhibition in rats (anti-lactation activity); format: in vivo; conditions: Rattus norvegicus, po, methane-sulfonic salt, 6th and 7th days, approximate (.congruent.); read-out: ED50, lactation inhibition (50% reduction of gain in weight of the litters)
Description: Adult pregnant female rats were individually caged about 6 days before parturition. The day after parturition (day 1), the number of pups was adjusted to eight. The gain in weight of the litters was measured daily.
The test compounds as methane-sulfonic salts were administered orally to groups of eight mother rats on the 6th and 7th days immediately after the weighing of the litters. The control mothers were treated with the vehicle alone.
The percentage of lactation inhibition was calculated from the mean gain in weight of the litters on the 7th and 8th days in comparison with the results for the 5th and 6th days.
No lactation inhibition was present on the 7th and 8th days in the vehicle-treated (control) group.
The doses capable of reducing to 50% the gain in weight of the litters (ED50) are reported below in Table II.

[7] = test system: nidation (implantation sites); test: Nidation inhibition in rats (anti-nidation activity); format: in vivo, rat (Sprague-Dowley strain); conditions: Rattus norvegicus, methane-sulphonic salt, given on 3rd day, approximate (.congruent.)
Description: Adult female rats, of the Sprague-Dowley strain, in proestrus were mated with fertile males and their vaginal smears were examined the next morning.
The presence of spermatozoa was considered evidence of impregnation and onset of pregnancy (day 1).
The compounds were administered orally or intraperitoneally as methane-sulphonic salts to groups of six to eight rats on the 3rd day.
On the 14th day the animals were sacrificed and the uterus was examined for the presence of implantation sites.
The absence of implantation sites was the criterion of activity.
Several doses were tested for the ED50 evaluation.

[8] = test system: prolactin (PRL) release; conditions: cited from earlier work
[9] = test system: emesis; test: Emetic activity in dogs; format: in vivo, dog (male beagle); conditions: dogs, both routes of administration (Table III), in words
Description: as §1

[10] = test system: puerperal lactation; test: Inhibition of puerperal lactation in women (clinical evaluation); format: in vivo, human (puerperal women)
Description: The invention concerns a novel method of inhibiting lactation in puerperal women by administering metergoline.
Metergoline was administered at a dose of 8 mg/day (4 mg at 0.800 and 4 mg at 2000) to these women: 10 women were treated with a placebo.

[11] = test system: prolactin (PRL) release; conditions: cited from earlier work; remark: listed apart in the source

CC(C)C[C@H]1C(=O)N2CCC[C@H]2[C@]2(O)O[C@](NC(=O)[C@@H]3C=C4c5cccc6[nH]c(Br)c(c56)C[C@H]4N(C)C3)(C(C)C)C(=O)N12 [Bromocriptine, 2-Br-α-ergocriptine, reference compound]
anti-nidation activity [1]: well known both for its anti-nidation and anti-lactation activity in rats | anti-prolactin activity [2]: anti-prolactin activity | treatment period required [3]: 14 days | anti-lactation activity [4]: well known both for its anti-nidation and anti-lactation activity in rats | TD50 at 2 h [5]: ~0.007 mg/kg | TD50 at 6 h [5]: < 0.03 mg/kg | ED50 [6]: 8 to 16 mg/kg | ED50 ([7]; ip): 16 to 32 mg/kg | ED50 ([7]; po): 8 to 16 mg/kg

N[C@@H](Cc1c[nH]c2ccc(O)cc12)C(=O)O [5 hydroxytryptophan]
effect on PRL release in man [8]: stimulates PRL release

CC[C@@H](CO)NC(=O)[C@@H]1C=C2c3cccc4c3c(cn4C)C[C@H]2N(C)C1 [methysergide]
effect on 5-hydroxytryptophan-stimulated PRL release ([8]; in man): partially inhibited

CN1C[C@H](CNC(=O)OCc2ccccc2)C[C@@H]2c3cccc4[nH]cc(c34)C[C@H]21 [1-Demethyl-metergoline, 6-Methyl-8β-carbobenzyloxy-aminomethyl-10α-ergoline]
emetic tolerability versus reference standard III [9]: clearly better tolerated than the reference standard III | TD50 at 2 h [5]: 0.05 to 0.1 mg/kg | TD50 at 6 h [5]: 0.2 to 0.4 mg/kg | ED50 [6]: 4 to 8 mg/kg | ED50 ([7]; po): 4 to 8 mg/kg

CN1C[C@H](CNC(=O)OCc2ccccc2)C[C@@H]2c3cccc4c3c(cn4C)C[C@H]21 [Metergoline, 1,6-Dimethyl-8β-carbobenzyloxy-aminomethyl-10α-ergoline]
women in whom five days of treatment prevented or suppressed lactation ([10]; 8 mg/day (4 mg twice), 5 days): 69 women | remaining women in whom a second course definitely inhibited every sign of mammary activity ([10]; 8 mg/day, second course of 5 additional days): 9 women | cases in which the necessary treatment period is 5 days ([10]; 5 days of treatment): 88.5% | treatment period necessary ([10]; in 88.5% of cases): 5 days | tolerability / side-effects ([10]; women, 8 mg/day, in words): perfectly tolerated and devoid of any side-effect | emetic tolerability versus reference standard III [9]: clearly better tolerated than the reference standard III | TD50 at 2 h [5]: > 8 mg/kg | TD50 at 6 h [5]: 4 to 8 mg/kg | ED50 [6]: 12.5 to 25 mg/kg | ED50 ([7]; ip): 16 to 32 mg/kg | ED50 ([7]; po): ~25 mg/kg

NCCc1c[nH]c2ccc(O)cc12 [serotonin (5HT), 5-hydroxytryptamine]
effect on PRL release in animals [11]: stimulates prolactin (PRL) release

— patent publication US4151283A, “6-Methyl-and 1,6-dimethyl-8β-carbobenzyloxy-aminomethyl-10α-ergoline as inhibitors of prolactin secretion” (Societa' Farmaceutici Italia S.p.A., priority 1977, dated 1979)
